According to article PMC6277198, “Molecular basis for activation of lecithin:cholesterol acyltransferase by a compound that increases HDL cholesterol” (eLife, 2018):
Where a chain is given by its changes, count along the chain named.

How the values were obtained:
[1] = tested on: LPLA2 chimeric variants (S33Y, I53G, and S33Y/I53G); assay: Differential scanning fluorimetry; assay type: binding
[2] = target: T1, LCAT R244A (Homo sapiens, UniProt P04180, R268A); assay: DHE acyltransferase assay with peptide-based HDLs; assay type: biochemical
T1 construct: hydrolysis of 4-methylumbelliferyl palmitate (MUP) by full-length LCAT; made in house; host or cells: HEK293F (transient transfection, secreted)
T1 sequence (P04180 25-440 R268A): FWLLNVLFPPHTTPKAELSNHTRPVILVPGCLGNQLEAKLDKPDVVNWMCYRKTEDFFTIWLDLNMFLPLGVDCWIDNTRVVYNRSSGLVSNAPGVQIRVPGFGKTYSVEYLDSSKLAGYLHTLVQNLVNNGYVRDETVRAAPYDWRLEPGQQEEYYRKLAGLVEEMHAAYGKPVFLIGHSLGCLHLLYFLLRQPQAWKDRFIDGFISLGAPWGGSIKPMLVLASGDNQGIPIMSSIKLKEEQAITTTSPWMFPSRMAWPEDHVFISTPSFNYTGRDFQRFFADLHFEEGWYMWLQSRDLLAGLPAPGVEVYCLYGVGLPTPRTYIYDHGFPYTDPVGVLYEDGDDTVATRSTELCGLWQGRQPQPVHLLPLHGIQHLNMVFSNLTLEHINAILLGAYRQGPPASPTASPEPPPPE
Procedure: (§1) Peptide-based HDLs were used in this assay as there is no difference between peptide HDLs and ApoA-I HDLs in both HDL binding and acyltransferase assays ([Manthei et al., 2017]). The peptide HDLs were made using the ESP24218 peptide with the sequence […] ([Dassuex et al., 1999]; [Li et al., 2015]) with a DPPC:POPC:DHE ratio of 47:47:6 as previously described ([Manthei et al., 2017]). The assay was performed in 384-well low volume black microplates (Corning 4514) with a total assay volume of 16 μL. In each reaction, LCAT was diluted in assay buffer to 15 μg mL^−1 in the presence of either 1% DMSO or 10 μM 2 with 1% DMSO. Compound 2 was used in this assay because it has lower background fluorescence than 1. The DHE HDLs were diluted in 1X PBS with 1 mM EDTA and 5 mM β-mercaptoethanol. 8 μL of the HDLs were added to the plate, and the reactions were initiated with 8 μL of LCAT, so that LCAT was assayed at 7.5 μg mL^−1 with and without 5 μM compound with a range of DHE concentrations from 0 to 50 μM. The reactions were stopped after 25 min at 37 °C with the addition of 4 μL of stop solution (1X PBS with 1 mM EDTA, 5 U mL^−1 cholesterol oxidase (COx), and 7% Triton X100). Following the addition of stop solution, the plates were incubated for another 60 min at 37 °C to allow for the COx to react. After the plates were re-equilibrated at room temperature, fluorescence was determined on a SpectraMax plate reader with excitation at 325 nm and emission at 425 nm, with a 420 nm cutoff. Reactions without LCAT were used for background subtraction, and reactions without LCAT and stop solution lacking COx were used to generate a standard curve for DHE. Reactions were performed in triplicate with three independent experiments per LCAT variant. Data were processed via background subtraction to remove excess fluorescence that results from the higher concentrations of DHE. […] Outliers were removed using automatic outlier elimination within Prism. For statistical analysis, the Vmax for each variant was compared to WT using a one-way analysis of variance followed by Tukey’s multiple comparisons post-test in GraphPad Prism.
(§2) To determine EC50 values, compound 2 was titrated from 0.004 to 10 μM, and the DHE concentration was set at 50 μM. LCAT was diluted in assay buffer and compound 2 dilutions were made with assay buffer containing 5.3% DMSO. 1.5 μL compound was added, then 6.5 μL LCAT, followed by 8 μL DHE. Dilutions were adjusted so that LCAT was assayed at 7.5 μg mL^−1, as above. All values were background subtracted to buffer with the same concentration of compound 2. A standard curve was included in one experiment with DHE from 0 to 50 μM in order to adjust the final fluorescence values to a rate by dividing by the slope of the line and time (25 min), as above. Outliers were removed using automatic outlier elimination within Prism. For statistical analysis, the EC50 for each variant was compared to WT using a one-way analysis of variance followed by Tukey’s multiple comparisons post-test in GraphPad Prism.

[3] = target: T2, LCAT Y51S/G71I (Homo sapiens, UniProt P04180, G95I/Y75S); assay: DHE acyltransferase assay with peptide-based HDLs; assay type: biochemical
T2 construct: hydrolysis of 4-methylumbelliferyl palmitate (MUP) by full-length LCAT; made in house; host or cells: HEK293F (transient transfection, secreted)
T2 sequence (P04180 25-440 Y75S/G95I): T1 sequence (P04180 25-440 R268A) with Y51S, G71I, A244R
Procedure: as §1, §2

[4] = target: T3, WT LCAT (Homo sapiens, UniProt P04180); assay: DHE acyltransferase assay with peptide-based HDLs; assay type: biochemical; set-up: hydrolysis of 4-methylumbelliferyl palmitate (MUP) by full-length LCAT; made in house; host or cells: HEK293F (transient transfection, secreted)
T3 sequence (P04180 25-440): T1 sequence (P04180 25-440 R268A) with A244R
Procedure: as §1
as §2, with “Outliers were removed using automatic outlier elimination within Prism. For statistical analysis, the EC50 for each variant was compared to WT using a one-way analysis of variance followed by Tukey’s multiple comparisons post-test in GraphPad Prism.” left out

SMILES: N#Cc1cnc(N2CCC(c3n[nH]c4c3C(O)(C(F)(F)F)CC(=O)N4)CC2)cc1C(F)(F)F (stereo not drawn) [compound 1, 6-(4-(4-Hydroxy-6-oxo-4-(trifluoromethyl)−4,5,6,7-tetrahydro-1H-pyrazolo[3,4-b]pyridin-3-yl)piperidin-1-yl)−4-(trifluoromethyl)nicotinonitrile]
- Thermal stabilization (DSF) [1]: unable to be stabilized

SMILES: O=C1CC(O)(C(F)(F)F)c2c(C3CCN(c4cnc(C(F)(F)F)cn4)CC3)n[nH]c2N1 (stereo not drawn) [compound 2, 4-Hydroxy-4-(trifluoromethyl)−3-(1-(5-(trifluoromethyl)pyrazin-2-yl)piperidin-4-yl)−4,5-dihydro-1H-pyrazolo[3,4-b]pyridin-6(7H)-one]
- EC50 ([2]; compound 2 titrated from 0.004 to 10 μM, DHE 50 μM): 760 ± 200 nM
- acyltransferase rate ([2]; highest concentration tested, 10 μM compound 2): 18 µM/h
- acyltransferase activity in the presence of compound 2 ([3]; Y51S/G71I variant): failed to increase activity
- DHE assay EC50 ([3]; Y51S/G71I, compound 2 titrated from 0.004 to 10 μM, DHE 50 μM): no effect
- Fold activation, DHE acyltransferase activity ([4]; WT LCAT, peptide-based HDLs): 2.8 fold
- acyltransferase rate ([4]; WT LCAT, lowest concentration of compound 2 examined): 11 µM/h
- EC50 ([4]; WT, compound 2 titrated from 0.004 to 10 μM, DHE 50 μM): 280 ± 90 nM
- Vmax, DHE assay ([4]; with 5 μM compound 2 (22 without)): 37 μM DHE-ester hr^−1
